Reference: ChEMBL document CHEMBL3739338, “Inhibition of carbonic anhydrase isoforms I, II, IV, VII and XII with carboxylates and sulfonamides incorporating phthalimide/phthalic anhydride scaffolds” (Bioorg Med Chem, 2016)

What was measured:
Carbonic anhydrase 2 = Carbonic anhydrase 2 (Homo sapiens, UniProt P00918); assay: Inhibition of human carbonic anhydrase-2 preincubated for 15 mins by stopped flow CO2 dehydration assay
Carbonic anhydrase 1 = Carbonic anhydrase 1 (Homo sapiens, UniProt P00915); assay: Inhibition of human carbonic anhydrase-1 preincubated for 15 mins by stopped flow CO2 dehydration assay
Carbonic anhydrase 4 = Carbonic anhydrase 4 (Homo sapiens, UniProt P22748); assay: Inhibition of human carbonic anhydrase-4 preincubated for 15 mins by stopped flow CO2 dehydration assay
Chain of Carbonic anhydrase 4 (P22748 whole entry): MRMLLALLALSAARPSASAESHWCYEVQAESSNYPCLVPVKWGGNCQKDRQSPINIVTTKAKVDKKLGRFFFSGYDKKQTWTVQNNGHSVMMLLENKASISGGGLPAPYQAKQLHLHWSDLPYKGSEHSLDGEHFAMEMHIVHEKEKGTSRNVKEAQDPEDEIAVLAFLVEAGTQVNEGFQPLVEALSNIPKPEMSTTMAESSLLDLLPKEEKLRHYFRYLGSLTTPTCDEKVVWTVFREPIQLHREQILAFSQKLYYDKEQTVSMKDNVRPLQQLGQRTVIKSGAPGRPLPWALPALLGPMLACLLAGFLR

Chain of Carbonic anhydrase 1 (P00915 whole entry): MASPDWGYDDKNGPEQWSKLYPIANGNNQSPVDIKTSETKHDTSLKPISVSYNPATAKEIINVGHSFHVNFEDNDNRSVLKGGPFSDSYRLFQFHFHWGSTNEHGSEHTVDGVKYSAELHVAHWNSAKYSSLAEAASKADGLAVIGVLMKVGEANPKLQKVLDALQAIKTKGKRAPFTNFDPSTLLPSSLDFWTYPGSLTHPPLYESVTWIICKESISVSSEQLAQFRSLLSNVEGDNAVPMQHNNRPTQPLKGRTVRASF

Compound	Ki (Carbonic anhydrase 2)	Ki (Carbonic anhydrase 1)	Ki (Carbonic anhydrase 4)
CCOC(=O)c1ccc(N2C(=O)c3ccc(C(=O)Nc4ccccc4C(=O)O)cc3C2=O)cc1	> 10 µM	> 10 µM	–
COc1cc(NC(=O)c2ccc3c(c2)C(=O)OC3=O)c(C(=O)O)cc1OC	> 10 µM	–	> 10 µM
O=C(Nc1ccc(Cl)cc1C(=O)O)c1ccc2c(c1)C(=O)OC2=O	–	–	> 10 µM
Cc1ccc(NC(=O)c2ccc3c(c2)C(=O)OC3=O)c(C(=O)O)c1	> 10 µM	–	–
NS(=O)(=O)c1ccc(N2C(=O)c3ccc(C(=O)Nc4ccccc4C(=O)O)cc3C2=O)cc1	0.0089 µM	–	–
O=C(Nc1ccc(I)cc1C(=O)O)c1ccc2c(c1)C(=O)OC2=O	> 10 µM	> 10 µM	> 10 µM

Next, values leading:

Ki (Carbonic anhydrase 2)	Ki (Carbonic anhydrase 1)	Ki (Carbonic anhydrase 4)	Compound
> 10 µM	–	–	O=C(Nc1ccccc1C(=O)O)c1ccc2c(c1)C(=O)N(Cc1ccccc1)C2=O
> 10 µM	–	–	O=C(Nc1ccccc1C(=O)O)c1ccc2c(c1)C(=O)N(CCc1ccccc1)C2=O
> 10 µM	–	–	O=C(Nc1ccccc1C(=O)O)c1ccc2c(c1)C(=O)OC2=O
> 10 µM	> 10 µM	–	O=C(O)c1ccc(N2C(=O)c3ccc(C(=O)Nc4ccccc4C(=O)O)cc3C2=O)cc1
0.0105 µM	–	–	NS(=O)(=O)c1ccc(CN2C(=O)c3ccc(C(=O)Nc4ccccc4C(=O)O)cc3C2=O)cc1
> 10 µM	> 10 µM	> 10 µM	O=C(Nc1ccccc1C(=O)O)c1ccc2c(c1)C(=O)N(c1ccccc1)C2=O
0.0138 µM	–	–	NS(=O)(=O)c1ccc(CCN2C(=O)c3ccc(C(=O)Nc4ccccc4C(=O)O)cc3C2=O)cc1
